Data: patent publication US11857653B2

Columns and labels:
[1] = pH study: change in pH of lesion forming solution after addition of calcium compounds; type: physicochemical; settings: 8 mM Ca added to lesion forming solution (pH 5.0), stirred 30 minutes at 37 degrees C.
[2] = pH cycling study: remineralization of artificial lesions (SMH, EFU); design: species or system Bovine; settings: five days, calcium compounds used together with 100 ppm F treatments
Procedure: A pH cycling study was performed. The study was developed to simulate the spike in acid production after three meals during the course of a day.
Bovine enamel specimens were polished and artificial lesions formed by immersion of the specimens in a lesion forming solution consisting of 0.1 M lactic acid and 0.2% Carbopol C907 which was 50% saturated with hydroxyapatite and adjusted to pH 5.0. The average specimen surface microhardness (SMH) was determined from four indentations on the surface of each specimen, using a Vickers hardness indenter at a load of 200 g for 15 seconds. […] Specimens were divided into subgroups of 18 specimens balanced by post-demineralization surface microhardness (SMH) values.
Remineralization efficacy was evaluated under two different cyclic treatment regimens. Both regimens consisted of three one-minute fluoride treatment periods (100 ppm, pH=6.5), and three one-hour acid challenges in the lesion forming solution, with calcium introduced during the acid challenges.
The difference between the two treatment regimens was the relative order of the fluoride treatments and the acid challenges. In Regimen I, shown in Table 1, the demineralization event (Demin: Lactic Acid Challenge) occurred first, followed by the remineralization event (Remin: Artificial Saliva Soak). In Regimen II, shown in Table 2, the order of events was reversed, and the remineralization event occurred first, followed by the demineralization event.
During the acid challenge periods (Demin: Lactic Acid Challenge), a 15 ml aliquot of the lesion forming solution was transferred to a treatment beaker containing six enamel specimens. Calcium compounds at equimolar calcium concentration, were introduced to the solution 20 minutes after the start of the acid challenge.
The pH cycling regimens were repeated for five consecutive days. […] As a negative control, the calcium sources, as well as the fluoride source, were replaced with water. Also, for comparison purposes, a study was performed with only the fluoride source.
After five days of treatment and pH cycling, remineralization efficacy was measured from change in surface microhardness (SMH) and enamel fluoride uptake (EFU). The surface microhardness was measured as described above, where the indentations were measured next to the baseline indentations. The fluoride content was determined by micro-drilling to a depth of 100 micron into each tooth. The enamel powder from the drill hole was collected, dissolved (20 microliter of HClO4, 40 microliter Citrate/EDTA Buffer and 40 microliter deionized (DI) water) and analyzed for fluoride by comparison to a similarly prepared standard curve.

ΔpH [1]	Compound	EFU, comparison between treatment groups (in words) ([2]; Regimen I)	SMH, comparison between treatment groups (in words) ([2]; Regimen I)	EFU, comparison between treatment groups (in words) ([2]; Regimen II)	SMH, comparison between treatment groups (in words) ([2]; Regimen II)
+0.33	O=P([O-])([O-])[O-].O=P([O-])([O-])[O-].[Ca+2].[Ca+2].[Ca+2] [Alpha-Tricalcium Phosphate]	comparable to the EFU of the highly soluble calcium compound (Calcium Chloride Dihydrate) treated specimens	comparable to the SMH of the highly soluble calcium compound (Calcium Chloride Dihydrate) treated specimens	equivalent to the EFU of the specimens only treated with 100 ppm F	comparable to the SMH of the specimens only treated with 100 ppm F
–	O.O.[Ca+2].[Cl-].[Cl-] [Calcium Chloride Dihydrate, reference compound]	–	–	highest values of EFU	highest values of SMH
